Like-named read-outs stand apart in the source and are kept apart here.
What was measured:
[1] = Biodistribution and pharmacokinetics in plasma and liver after intravenous administration in mice; format: in vivo; details: 5 mg/kg intravenous; for AUC(0-t) / Cmax: iv
Experimental: Based on the results of the potency and in vitro stability studies, conjugate 6 was selected for in vivo pharmacokinetic analysis following a single intravenous injection of 5 mg/kg in male C57 BL/6. Doses of PSN-357 intravenous were used as standard regimens for comparison.
Male C57 BL/6 mice (18–20 g, 5–6 weeks old) were provided by the Laboratory Animal Center of Academy of Military Medical Science of People’s Liberation Army, and were reared in standard rodent cages in animal house of Chengde Medical University, under the condition of a constant temperature of 24 °C (±2 °C) and a 12 h light/dark cycle. PSN-357 and conjugate 6 were injected through the caudal vein. For each sampling time point, three mice were treated with a single dose of either PSN-357 or conjugate 6 at 5 mg/kg in 10% DMSO/saline solutions. Blood and liver samples were taken at 0.0833, 0.25, 0.5, 1, 2, 4, 6 and 24 h following intravenous administration, and stored at −80 °C until analysis. Aliquots of all biological matrixes were deproteinized with a mixture of methanol/acetonitrile (1:1). The suspension was vortexed, mixed, and centrifuged at 13000 rpm for 10 min. The organic phase was injected into the LC-MS/MS system. PK calculations and statistical comparisons on PK data were performed according to a non-compartmental kinetic model with validated software (Kinetica™ version 5.1, Thermo Electron Corporation, USA).

[2] = system: HepG2 cells; experiment: Glycogenolysis inhibition in HepG2 cells; format: cell-based, human; details: HepG2 cells, 60-min incubation with 0.3 nM glucagon, mean ± S.D. of three, NI means no inhibition, read-out: IC50 (glycogenolysis inhibition, HepG2 cells)
Source text: To evaluate the effects of all compounds in cells, the glycogenolysis assays were established in both rat and human liver cells based on the published method. […] The inhibitory activities of the derivatives of PSN-357 (e.g. 25–28) were also explored. It is not surprising that the derivatives still retained micromolar inhibitory activities. Introduction of steric bulks to the hydroxyl group (e.g. 33, 40, 42, 48) led to a complete loss of activity. Data analysis indicated no clear SAR for the substitutents in the cell-based assays.
The inhibition of hepatic glycogenolysis was monitored by the measurement of liver glycogen, which was done quantitatively by the anthrone reagent (Sigma) colorimetric method based on the published method. Isolated rat hepatocytes or HepG2 cells (Sigma) were treated with the test compound or DMSO solvent (final concentration, 0.10%), followed by 60-min incubation with 0.3 nM glucagon (GGN). Assays were terminated by centrifugation, and cells were digested with 30% KOH followed by glycogen determination. The IC50 values were estimated by fitting the inhibition data to a dose-dependent curve using a logistic derivative equation.

[3] = Stability in mouse plasma; format: in vitro ADME; details: 2 μM, 37 °C, 120-min test
Experimental: Frozen plasma from male C57 BL/6 mice was incubated for 5 min at 37 °C before the addition of the test compound. Then prepared 2 μM incubation sample, and aliquots of the incubation mixtures (100 μL) were taken at predetermined time points (10, 30, 60, 120 min) at 37 °C. After incubation, the mixtures was added 400 μL of 50% ACN/50% MeOH containing internal standard (IS, 200 ng/mL Tolbutamide and 20 ng/mL Buspirone) to each sample tube and then centrifuged at 13000 rpm for 8 min. Blank incubations in the absence of the test compound were also performed. The analyses of test compounds were performed by LC-MS/MS analysis.

[4] = system: leptin-deficient ob/ob mice; experiment: Glucose lowering in vivo in diabetic ob/ob mice; details: 50 mg/kg p.o.; for hypoglycemic effect (in words): 0-24 h
Experimental: In vivo efficacy of compound PSN-357 and conjugate 6 were studied on leptin-deficient ob/ob mice. Metformin was chosen as a positive control. […] Especially, there was still significant decrease in BG levels by conjugate 6 up to 6 h after administration. The effect might be due to the fact that 6 acts in a sustained release and longer acting manners. It is noteworthy that the findings are highly consistent with the results from in vivo pharmacokinetic studies.
Five- to six-week old obese, diabetic ob/ob mice (male C57BL/6 J) and their lean, nondiabetic male C57BL/6 J littermates were provided by the Model Animal Research Center of Nanjing University, and housed under standard animal care practices with ad libitum access to food and water throughout the procedures. After 1 week acclimation, blood was collected from the retroorbital sinus for plasma glucose determination, and mice were randomized to groups with similar mean ± SD. Mice were then dosed p.o. daily for 4 days with vehicle consisting of DMSO/PEG400/H-β-CD (1:3:6, v/v/v). On day 5, mice were treated p.o. with PSN-357 (50 mg/kg) or conjugate 6 (50 mg/kg) or vehicle, then bled at 0, 1, 2, 3, 6 and 24 h post-dose for plasma glucose determination. Statistical analysis of the hypoglycemic effect was determined by unpaired t test with the ob/ob mice vehicle treated group.

[5] = Stability in mouse liver microsomes (MLM); format: in vitro ADME; details: for CLint scaled at 10 μM / half-life at 10 μM / microsomal CLint at 10 μM: C57BL/6, pH 7.4, n = 3
Experimental: Additionally, the compounds’ stability in microsome were evaluated by measuring the rate of compounds consumpation in MLM and the results are shown in Table 3.
The microsomal pellet was suspended in potassium phosphate buffer (100 mM, pH 7.4), 10 μM test compound or positive control (diclofenac) was added. Liver microsomes from C57BL/6 mice (BD Gentest) were pooled. The mixture of microsome solution and compound was incubated at 37 °C for about 10 min in the presence of a NADPH-regenerating system, consisting of 0.02 M DL-isocitric acid (trisodium salt), 0.1 mg/mL isocitrate dehydrogenase and 1 mM NADPH. The addition of ice-cold CH3CN (including 100 ng/mL tolbutamide as internal standard) terminated the reaction. The mixture was vortexed for approx (30 s), centrifuged (20 min, 4000 rpm) and the supernatant was collected and analysed by LC-MS/MS method.

[6] = male, C57 BL/6, mouse, liver tissue, read-out: MRT0-t, liver
[7] = male, C57 BL/6, mouse, liver, 5 mg/kg, liver tissue, read-out: AUC0-t, liver
[8] = male, C57 BL/6, mouse, plasma, read-out: MRT0-t, plasma
[9] = male, C57 BL/6, mouse, plasma, 5 mg/kg
[10] = male, C57 BL/6, mouse, plasma, 5 mg/kg, plasma, read-out: AUC0-t, plasma

Row | Structure (SMILES) | Cmax, liver ([1]; liver tissue) [ng/mL] | MRT last [1, 6] [h] | AUC(0-t) [1, 7] [ng·h/mL] | MRT last [1, 8] [h] | Cmax [1, 9] [ng/mL] | AUC(0-t) [1, 10] [ng·h/mL] | Cmax, plasma ([1]; plasma, 5 mg/kg) [ng/mL] | IC50 ([2]; Homo sapiens, HepG2, 1 h) [µM] | metabolic stability in MLM (in words) [5] | CLint scaled at 10 μM [5] [mL/min/kg] | half-life at 10 μM [5] [h] | microsomal CLint at 10 μM [5] [µL/min/mg] | also measured
1 | C[C@H](CCC(=O)N[C@@H](CC(=O)O)C(=O)OC1CCN(C(=O)[C@H](Cc2ccc(F)cc2)NC(=O)c2cc3cc(Cl)ncc3[nH]2)CC1)[C@H]1CC[C@H]2[C@@H]3[C@H](O)C[C@@H]4C[C@H](O)CC[C@]4(C)[C@H]3C[C@H](O)[C@]12C [Conjugate 6] | 3094.55 | 4.42 | 3980 | 7.52 | 726 | 1520 | 726.2 | 6.1 | considerable metabolic stability | 64.9 | 1.41 | 16.4 | concentration at 240 min ([1]; male, C57 BL/6, mouse, plasma, 240 min, read-out: plasma concentration at 240 min after dosing): 97 ng/mL; IC50 [2]: 6.12 ± 1.38 µM; degradation in mouse plasma [3]: ~12%; hypoglycemic effect (in words) ([4]; n = 10, 50 mg/kg): small but significant hypoglycemic effects; BG level at largest drop ([4]; at 3 h, p < 0.005): around 7.79 mmol/L
2 | O=C(N[C@@H](Cc1ccc(F)cc1)C(=O)N1CCC(O)CC1)c1cc2cc(Cl)ncc2[nH]1 [PSN-357] | 6677.85 | 4.52 | 9710 | 3.18 | 628 | 965 | 628.35 | 3.1 ± 0.37 | good metabolic stability | < 38 | > 2.42 | < 9.6 | AUC0-t, liver ([1]; liver tissue, 5 mg/kg): 9711.94 ng·h/mL; Kp ([1]; male, C57 BL/6, mouse, liver and plasma, read-out: AUCliver/AUCplasma ratio): 10.1; AUC0-t, plasma ([1]; plasma, 5 mg/kg): 965.16 ng·h/mL; time of secondary peak in plasma ([1]; plasma, perhaps due to enterohepatic circulation): 60 min; stability in mouse plasma (in words) [3]: relatively stable; hypoglycemic effect (in words) ([4]; n = 10): significantly reduc the blood glucose; blood glucose (BG) nadir ([4]; at 1 h, p < 0.005 vs control ob/ob mice): 6.36 ± 1.46 mM

Source: PMC5320518, “Novel Liver-targeted conjugates of Glycogen Phosphorylase Inhibitor PSN-357 for the Treatment of Diabetes: Design, Synthesis, Pharmacokinetic and Pharmacological Evaluations” (Scientific Reports, 2017)
